# In ChEMBL document CHEMBL3885861, “Open TG-GATES”:
# Species: Rattus norvegicus
# Assay: Open TG-GATES - Regimen: Daily Repeat
# Format: toxicity, organism-based, Sprague-Dawley
# Design: regimen Daily Repeat, gender Male, age 6 weeks
# Details: in vivo, po, 10 mg/kg, route gavage, dose level Low; for APTT / Bas / Eos / Fbg / Hb / Ht / Lym / MCH / MCHC / MCV / Mono / Neu / PT / Plat / RBC / Ret / WBC: tissue Blood; for KIDNEY_L / KIDNEY_R / KIDNEY_TOTAL: tissue Kidney; for LIVER: tissue Liver; for A/G / ALP / ALT / AST / BUN / CRE / Ca / Cl / DBIL / GLC / IP / K / LDH / Na / PL / RALB / TBIL / TC / TG / TP / gamma-GTP: tissue Plasma
smiles,measurement,setting,value
CN(C)CCN(Cc1cccs1)c1ccccn1,TERMINAL_BW,"72 h, time 3 day",219.5 g
same,APTT,"72 h, time 3 day",21.1 s
same,Bas,"72 h, time 3 day",0%
same,Eos,"72 h, time 3 day",0.8%
same,Fbg,"72 h, time 3 day",343 mg/dL
same,Hb,"72 h, time 3 day",13 g/dL
same,Ht,"72 h, time 3 day",39.1%
same,Lym,"72 h, time 3 day",79%
same,MCH,"72 h, time 3 day",21.6 pg
same,MCHC,"72 h, time 3 day",33.2%
same,MCV,"72 h, time 3 day",65 fL
same,Mono,"72 h, time 3 day",1.6%
same,Neu,"72 h, time 3 day",18%
same,PT,"72 h, time 3 day",16 s
same,Plat,"72 h, time 3 day",116.7 x10_4/uL
same,RBC,"72 h, time 3 day",603.4 x10_4/ul
same,Ret,"72 h, time 3 day",7%
same,WBC,"72 h, time 3 day",85.5 x10_2/uL
same,KIDNEY_L,"72 h, time 3 day",1 g
same,KIDNEY_R,"72 h, time 3 day",1 g
same,KIDNEY_TOTAL,"72 h, time 3 day",2 g
same,LIVER,"72 h, time 3 day",10.9 g
same,A/G,"72 h, time 3 day",1.1
same,ALP,"72 h, time 3 day",1503.8 IU/L
same,ALT,"72 h, time 3 day",43.2 IU/L
same,AST,"72 h, time 3 day",72.2 IU/L
same,BUN,"72 h, time 3 day",16.8 mg/dL
same,CRE,"72 h, time 3 day",0.2 mg/dL
same,Ca,"72 h, time 3 day",10.9 mg/dL
same,Cl,"72 h, time 3 day",107 meq/L
same,DBIL,"72 h, time 3 day",0 mg/dL
same,GLC,"72 h, time 3 day",188.2 mg/dL
same,IP,"72 h, time 3 day",7.8 mg/dL
same,K,"72 h, time 3 day",4.2 meq/L
same,LDH,"72 h, time 3 day",181 IU/L
same,Na,"72 h, time 3 day",143.6 meq/L
same,PL,"72 h, time 3 day",149.8 mg/dL
same,RALB,"72 h, time 3 day",2.9 g/dL
same,TBIL,"72 h, time 3 day",0.006 mg/dL
same,TC,"72 h, time 3 day",80.6 mg/dL
same,TG,"72 h, time 3 day",108.2 mg/dL
same,TP,"72 h, time 3 day",5.6 g/dL
same,gamma-GTP,"72 h, time 3 day",1.2 IU/L
same,TERMINAL_BW,"[…], time 7 day",229.9 g
same,TERMINAL_BW,"[…], time 14 day",284.8 g
same,TERMINAL_BW,"[…], time 28 day",353.5 g
same,APTT,"[…], time 7 day",22.1 s
same,Bas,"[…], time 7 day",0%
same,Eos,"[…], time 7 day",1%
same,Fbg,"[…], time 7 day",323.4 mg/dL
same,Hb,"[…], time 7 day",13.7 g/dL
same,Ht,"[…], time 7 day",40.5%
same,Lym,"[…], time 7 day",82.8%
same,MCH,"[…], time 7 day",20.8 pg
same,MCHC,"[…], time 7 day",33.8%
same,MCV,"[…], time 7 day",61.6 fL
same,Mono,"[…], time 7 day",2%
same,Neu,"[…], time 7 day",13.2%
same,PT,"[…], time 7 day",16.4 s
same,Plat,"[…], time 7 day",120.4 x10_4/uL
same,RBC,"[…], time 7 day",658 x10_4/ul
same,Ret,"[…], time 7 day",4.8%
same,WBC,"[…], time 7 day",113.4 x10_2/uL
same,APTT,"[…], time 14 day",21.3 s
same,Bas,"[…], time 14 day",0%
same,Eos,"[…], time 14 day",0.6%
same,Fbg,"[…], time 14 day",297.6 mg/dL
same,Hb,"[…], time 14 day",14.3 g/dL
same,Ht,"[…], time 14 day",42.1%
same,Lym,"[…], time 14 day",83.6%
same,MCH,"[…], time 14 day",20.8 pg
same,MCHC,"[…], time 14 day",34%
same,MCV,"[…], time 14 day",61.1 fL
same,Mono,"[…], time 14 day",1.6%
same,Neu,"[…], time 14 day",13.2%
same,PT,"[…], time 14 day",16.2 s
same,Plat,"[…], time 14 day",116 x10_4/uL
same,RBC,"[…], time 14 day",689.4 x10_4/ul
same,Ret,"[…], time 14 day",4.6%
same,WBC,"[…], time 14 day",120.5 x10_2/uL
same,APTT,"[…], time 28 day",22.8 s
same,Bas,"[…], time 28 day",0%
same,Eos,"[…], time 28 day",1.2%
same,Fbg,"[…], time 28 day",307.8 mg/dL
same,Hb,"[…], time 28 day",15.3 g/dL
same,Ht,"[…], time 28 day",44.4%
same,Lym,"[…], time 28 day",78.8%
same,MCH,"[…], time 28 day",20.2 pg
same,MCHC,"[…], time 28 day",34.5%
same,MCV,"[…], time 28 day",58.6 fL
same,Mono,"[…], time 28 day",2.2%
same,Neu,"[…], time 28 day",17.2%
same,PT,"[…], time 28 day",15.8 s
same,Plat,"[…], time 28 day",96.3 x10_4/uL
same,RBC,"[…], time 28 day",758 x10_4/ul
same,Ret,"[…], time 28 day",2.6%
same,WBC,"[…], time 28 day",105 x10_2/uL
same,KIDNEY_L,"[…], time 7 day",1 g
same,KIDNEY_R,"[…], time 7 day",1 g
same,KIDNEY_TOTAL,"[…], time 7 day",2 g
same,KIDNEY_L,"[…], time 14 day",1.1 g
same,KIDNEY_R,"[…], time 14 day",1.2 g
same,KIDNEY_TOTAL,"[…], time 14 day",2.3 g
same,KIDNEY_L,"[…], time 28 day",1.2 g
same,KIDNEY_R,"[…], time 28 day",1.3 g
same,KIDNEY_TOTAL,"[…], time 28 day",2.5 g
same,LIVER,"[…], time 7 day",10.6 g
same,LIVER,"[…], time 14 day",12.3 g
same,LIVER,"[…], time 28 day",14.3 g
same,A/G,"[…], time 7 day",1.1
same,ALP,"[…], time 7 day",1638.2 IU/L
same,ALT,"[…], time 7 day",35.6 IU/L
same,AST,"[…], time 7 day",66.6 IU/L
same,BUN,"[…], time 7 day",18.6 mg/dL
same,CRE,"[…], time 7 day",0.2 mg/dL
same,Ca,"[…], time 7 day",10.4 mg/dL
same,Cl,"[…], time 7 day",108.8 meq/L
same,DBIL,"[…], time 7 day",0 mg/dL
same,GLC,"[…], time 7 day",174.6 mg/dL
same,IP,"[…], time 7 day",6.8 mg/dL
same,K,"[…], time 7 day",4.7 meq/L
same,LDH,"[…], time 7 day",183.8 IU/L
same,Na,"[…], time 7 day",144.2 meq/L
same,PL,"[…], time 7 day",129.6 mg/dL
same,RALB,"[…], time 7 day",3 g/dL
same,TBIL,"[…], time 7 day",0.008 mg/dL
same,TC,"[…], time 7 day",63.2 mg/dL
same,TG,"[…], time 7 day",109.2 mg/dL
same,TP,"[…], time 7 day",5.7 g/dL
same,gamma-GTP,"[…], time 7 day",1 IU/L
same,A/G,"[…], time 14 day",1.1
same,ALP,"[…], time 14 day",1409 IU/L
same,ALT,"[…], time 14 day",39.4 IU/L
same,AST,"[…], time 14 day",68.6 IU/L
same,BUN,"[…], time 14 day",17.6 mg/dL
same,CRE,"[…], time 14 day",0.2 mg/dL
same,Ca,"[…], time 14 day",10.2 mg/dL
same,Cl,"[…], time 14 day",108.2 meq/L
same,DBIL,"[…], time 14 day",0.002 mg/dL
same,GLC,"[…], time 14 day",175.4 mg/dL
same,IP,"[…], time 14 day",6.7 mg/dL
same,K,"[…], time 14 day",4.2 meq/L
same,LDH,"[…], time 14 day",177.2 IU/L
same,Na,"[…], time 14 day",143.2 meq/L
same,PL,"[…], time 14 day",137.2 mg/dL
same,RALB,"[…], time 14 day",2.9 g/dL
same,TBIL,"[…], time 14 day",0.012 mg/dL
same,TC,"[…], time 14 day",71.8 mg/dL
same,TG,"[…], time 14 day",88.8 mg/dL
same,TP,"[…], time 14 day",5.6 g/dL
same,gamma-GTP,"[…], time 14 day",1 IU/L
same,A/G,"[…], time 28 day",1.2
same,ALP,"[…], time 28 day",1369.6 IU/L
same,ALT,"[…], time 28 day",45.8 IU/L
same,AST,"[…], time 28 day",73.4 IU/L
same,BUN,"[…], time 28 day",20.4 mg/dL
same,CRE,"[…], time 28 day",0.2 mg/dL
same,Ca,"[…], time 28 day",10.3 mg/dL
same,Cl,"[…], time 28 day",107.6 meq/L
same,DBIL,"[…], time 28 day",0.004 mg/dL
same,GLC,"[…], time 28 day",189 mg/dL
same,IP,"[…], time 28 day",6.5 mg/dL
same,K,"[…], time 28 day",3.9 meq/L
same,LDH,"[…], time 28 day",183.6 IU/L
same,Na,"[…], time 28 day",143.2 meq/L
same,PL,"[…], time 28 day",142.6 mg/dL
same,RALB,"[…], time 28 day",3.2 g/dL
same,TBIL,"[…], time 28 day",0.026 mg/dL
same,TC,"[…], time 28 day",72.4 mg/dL
same,TG,"[…], time 28 day",111 mg/dL
same,TP,"[…], time 28 day",5.7 g/dL
same,gamma-GTP,"[…], time 28 day",1.4 IU/L
